Laboratory results as given in patent publication US8313729B2, “Integrated photoactive small molecules and uses thereof” (Medibeacon, LLC, priority 2007, dated 2012).

Assays:
[1] = UV/vis absorption in PBS; assay type: physicochemical; settings: 100 μM in PBS
[2] = Fluorescence excitation and emission; assay type: physicochemical

| UV/vis λabs [1] | Fluorescence λem ([2]; concentration not given) | Fluorescence λex ([2]; concentration not given) | Fluorescence λem ([2]; 100 nM) | Fluorescence λex ([2]; 100 nM) | Compound |
| --- | --- | --- | --- | --- | --- |
| 434 nm | 559 nm | 449 nm | – | – | Nc1nc(C(=O)NCC(O)CO)c(N)nc1C(=O)NCC(O)CO (stereo not drawn) [Example 3, 3,6-diamino-N^2,N^5-bis(2,3-dihydroxypropyl)pyrazine-2,5-dicarboxamide] |
| 432 nm | 558 nm | 432 nm | – | – | Nc1nc(C(=O)N[C@@H](CO)C(=O)O)c(N)nc1C(=O)N[C@@H](CO)C(=O)O [Example 4, 3,6-Diamino-N^2,N^5-bis(serine)-pyrazine-2,5-dicarboxamide] |
| 437 nm | – | – | 554 nm | 428 nm | N=C(N)c1ccc(CNC(=O)c2nc(N)c(C(=O)NCc3ccc(C(=N)N)cc3)nc2N)cc1 [Example 1, 3,6-diamino-N2,N5-bis(4-carbamimidoylbenzyl)pyrazine-2,5-dicarboxamide] |
